ChEMBL document CHEMBL2073969, “Increased renal expression of bilirubin glucuronide transporters in a rat model of obstructive jaundice” (Am J Physiol Gastrointest Liver Physiol, 2002)

Molecular target: ATP-binding cassette sub-family C member 2 (Homo sapiens, UniProt Q92887)
Test: TP_TRANSPORTER: RT-PCR in renal proximal tubular epithelial cells
Assay type: functional, tissue-based, Kidney
Conditions: epithelial cell

ATP-binding cassette sub-family C member 2, sequence (Q92887 whole entry): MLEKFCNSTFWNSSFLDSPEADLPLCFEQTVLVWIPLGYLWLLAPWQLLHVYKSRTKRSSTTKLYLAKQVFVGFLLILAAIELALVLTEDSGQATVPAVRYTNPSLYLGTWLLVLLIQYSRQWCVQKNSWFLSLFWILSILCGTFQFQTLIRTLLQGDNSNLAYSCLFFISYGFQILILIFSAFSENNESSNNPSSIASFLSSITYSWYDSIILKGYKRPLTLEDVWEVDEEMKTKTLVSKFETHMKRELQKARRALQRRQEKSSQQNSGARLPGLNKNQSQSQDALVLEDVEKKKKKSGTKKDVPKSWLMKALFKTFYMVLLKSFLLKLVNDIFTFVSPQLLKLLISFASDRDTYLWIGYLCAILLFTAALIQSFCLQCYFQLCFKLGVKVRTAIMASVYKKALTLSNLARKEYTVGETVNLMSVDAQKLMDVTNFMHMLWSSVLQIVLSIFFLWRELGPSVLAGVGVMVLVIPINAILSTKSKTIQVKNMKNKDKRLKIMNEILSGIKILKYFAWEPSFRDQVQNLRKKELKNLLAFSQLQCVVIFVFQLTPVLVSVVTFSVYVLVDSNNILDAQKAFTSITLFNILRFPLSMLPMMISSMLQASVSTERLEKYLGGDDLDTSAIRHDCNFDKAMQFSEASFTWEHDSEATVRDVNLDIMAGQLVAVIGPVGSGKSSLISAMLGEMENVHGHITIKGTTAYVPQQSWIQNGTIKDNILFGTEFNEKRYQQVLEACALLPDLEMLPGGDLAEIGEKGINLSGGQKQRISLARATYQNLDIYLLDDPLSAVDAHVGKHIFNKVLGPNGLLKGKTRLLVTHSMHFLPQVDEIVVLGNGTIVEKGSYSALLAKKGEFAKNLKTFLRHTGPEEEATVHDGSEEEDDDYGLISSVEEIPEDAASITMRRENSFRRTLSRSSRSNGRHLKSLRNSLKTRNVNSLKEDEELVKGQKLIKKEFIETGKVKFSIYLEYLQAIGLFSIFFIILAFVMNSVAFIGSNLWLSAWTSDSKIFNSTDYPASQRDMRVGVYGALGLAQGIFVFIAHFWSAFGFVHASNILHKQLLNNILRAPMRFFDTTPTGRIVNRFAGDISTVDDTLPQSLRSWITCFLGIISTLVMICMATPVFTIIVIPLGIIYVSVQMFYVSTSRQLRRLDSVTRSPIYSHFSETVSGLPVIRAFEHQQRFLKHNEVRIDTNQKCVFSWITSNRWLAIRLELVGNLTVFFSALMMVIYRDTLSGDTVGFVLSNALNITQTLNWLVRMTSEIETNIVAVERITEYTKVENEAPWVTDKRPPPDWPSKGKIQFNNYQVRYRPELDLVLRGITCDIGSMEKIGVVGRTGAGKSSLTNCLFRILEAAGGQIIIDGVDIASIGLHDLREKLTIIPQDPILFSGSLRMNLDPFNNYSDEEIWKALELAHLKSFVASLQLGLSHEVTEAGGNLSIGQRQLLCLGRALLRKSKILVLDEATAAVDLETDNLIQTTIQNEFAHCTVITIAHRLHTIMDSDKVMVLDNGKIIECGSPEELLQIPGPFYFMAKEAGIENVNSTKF

C[C@H](CCC(=O)NCCS(=O)(=O)O)[C@H]1CC[C@H]2[C@@H]3CC[C@@H]4C[C@H](O)CC[C@]4(C)[C@H]3CC[C@]12C [TAUROLITHOCHOLIC ACID]
Activity: inducer [+]

C=CC1=C(C)/C(=C/c2[nH]c(Cc3[nH]c(/C=C4\NC(=O)C(C)=C4C=C)c(C)c3CCC(=O)NCCS(=O)(=O)O)c(CCC(=O)NCCS(=O)(=O)O)c2C)NC1=O [BILIRUBIN DITAURATE]
Activity: inducer [+]
